According to patent publication US20190161451A1, “HERBICIDAL PYRIMIDINE COMPOUNDS” (BASF SE, priority 2016, published 2019):

Assays:
[1] = test system: ECHCG; test: greenhouse experiment, post-emergence treatment; type: in vivo, Echinocloa crus-galli; conditions: post-emergence method, scale from 0 to 100
Text: (§1) The culture containers used were plastic flowerpots containing loamy sand with approximately 3.0% of humus as the substrate. The seeds of the test plants were sown separately for each species.
(§2) For the post-emergence treatment, the test plants were first grown to a height of 3 to 15 cm, depending on the plant habit, and only then treated with the active ingredients which had been suspended or emulsified in water. For this purpose, the test plants were either sown directly and grown in the same containers, or they were first grown separately as seedlings and transplanted into the test containers a few days prior to treatment.
(§3) Depending on the species, the plants were kept at 10-25° C. or 20-35° C., respectively.
(§4) The test period extended over 2 to 4 weeks. During this time, the plants were tended, and their response to the individual treatments was evaluated.
(§5) Evaluation was carried out using a scale from 0 to 100. 100 means no emergence of the plants, or complete destruction of at least the aerial moieties, and 0 means no damage, or normal course of growth. A good herbicidal activity is given at values of at least 70 and a very good herbicidal activity is given at values of at least 85.
(§6) The plants used in the greenhouse experiments were of the following species: […]

[2] = test system: ALOMY; test: greenhouse experiment, post-emergence treatment; type: in vivo, Alopecurus myosuroides; conditions: post-emergence method, scale from 0 to 100
Text: as §1, §2, §3, §4, §5, §6

[3] = test system: ECHCG; test: greenhouse experiment, pre-emergence treatment; type: in vivo, Echinocloa crus-galli; conditions: pre-emergence method, scale from 0 to 100
Text: as §1
(§7) For the pre-emergence treatment, the active ingredients, which had been suspended or emulsified in water, were applied directly after sowing by means of finely distributing nozzles.
(§8) The containers were irrigated gently to promote germination and growth and subsequently covered with transparent plastic hoods until the plants had rooted. This cover caused uniform germination of the test plants, unless this had been impaired by the active ingredients.
as §3, §4, §5, §6

[4] = test system: APESV; test: greenhouse experiment, pre-emergence treatment; type: in vivo, Apera spica-venti; conditions: pre-emergence method, scale from 0 to 100
Text: as §1, §7, §8, §3, §4, §5, §6

[5] = test system: SETVI; test: greenhouse experiment, post-emergence treatment; type: in vivo, Setaria viridis; conditions: post-emergence method, scale from 0 to 100
Text: as §1, §2, §3, §4, §5, §6

[6] = test system: AMARE; test: greenhouse experiment, post-emergence treatment; type: in vivo, Amaranthus retroflexus; conditions: post-emergence method, scale from 0 to 100
Text: as §1, §2, §3, §4, §5, §6

[7] = test system: ABUTH; test: greenhouse experiment, post-emergence treatment; type: in vivo, Abutilon theophrasti; conditions: post-emergence method, application rate 1000 g/ha, scale from 0 to 100
Text: as §1, §2, §3, §4, §5, §6

[8] = test system: AMARE; test: greenhouse experiment, pre-emergence treatment; type: in vivo, Amaranthus retroflexus; conditions: pre-emergence method, application rate 1000 g/ha, scale from 0 to 100
Text: as §1, §7, §8, §3, §4, §5, §6

| Structure (SMILES) | herbicidal activity against ECHCG ([1]; application rate 1000 g/ha) | herbicidal activity against ALOMY ([2]; application rate 1000 g/ha) | herbicidal activity against ECHCG ([3]; application rate 1000 g/ha) | further results |
| --- | --- | --- | --- | --- |
| COC(=O)c1nc(C2CC2)ncc1-c1c(Cl)cc2c(c1F)OCO2 [example 32] | good (A good herbicidal activity is given at values of at least 70) | good (A good herbicidal activity is given at values of at least 70) | very good (a very good herbicidal activity is given at values of at least 85) |  |
| COC(=O)c1nc(C2CC2)ncc1-c1cc2c(cc1I)OCO2 [example 28] | good (A good herbicidal activity is given at values of at least 70) | good (A good herbicidal activity is given at values of at least 70) | very good (a very good herbicidal activity is given at values of at least 85) |  |
| COC(=O)c1nc(C2CC2)ncc1-c1cc2c(cc1Br)OCO2 [example 24] | very good (a very good herbicidal activity is given at values of at least 85) | very good (a very good herbicidal activity is given at values of at least 85) |  |  |
| COC(=O)c1nc(C2CC2)ncc1-c1cc2c(cc1Cl)OCO2 [example 9] | very good (a very good herbicidal activity is given at values of at least 85) |  |  |  |
| COC(=O)c1nc(C2CC2)ncc1-c1c(Cl)oc2ccccc12 [example 19] |  |  |  | herbicidal activity against ALOMY ([2]; application rate 2000 g/ha): good (A good herbicidal activity is given at values of at least 70) |
| O=C(O)c1nc(C2CC2)ncc1-c1coc2ccccc12 [example 16] |  |  |  | herbicidal activity against ECHCG ([1]; application rate 2000 g/ha): good (A good herbicidal activity is given at values of at least 70); herbicidal activity against APESV ([4]; application rate 2000 g/ha): very good (a very good herbicidal activity is given at values of at least 85); herbicidal activity against ECHCG ([3]; application rate 2000 g/ha): very good (a very good herbicidal activity is given at values of at least 85) |
| COC(=O)c1nc(C2CC2)ncc1-c1c(Cl)sc2ccccc12 [example 17, Methyl 5-(2-chlorobenzothiophen-3-yl)-2-cyclopropyl-pyrimidine-4-carboxylate] |  |  |  | herbicidal activity against SETVI ([5]; application rate 2000 g/ha): very good (a very good herbicidal activity is given at values of at least 85) |
| COC(=O)c1nc(C2CC2)ncc1-c1csc2ccccc12 [example 12, Methyl 5-(benzothiophen-3-yl)-2-cyclopropyl-pyrimidine-4-carboxylate] |  |  |  | herbicidal activity against ECHCG ([3]; application rate 2000 g/ha): very good (a very good herbicidal activity is given at values of at least 85) |
| O=C(O)c1nc(C2CC2)ncc1-c1c(Cl)cc2c(c1F)OCO2 [example 33] | very good (a very good herbicidal activity is given at values of at least 85) | good (A good herbicidal activity is given at values of at least 70) | very good (a very good herbicidal activity is given at values of at least 85) | herbicidal activity against APESV ([4]; application rate 1000 g/ha): very good (a very good herbicidal activity is given at values of at least 85) |
| COC(=O)c1nc(C2CC2)ncc1-c1c(Cl)ccc2c1OCO2 [example 11] |  | very good (a very good herbicidal activity is given at values of at least 85) | very good (a very good herbicidal activity is given at values of at least 85) | herbicidal activity against AMARE ([6]; application rate 1000 g/ha): good (A good herbicidal activity is given at values of at least 70) |
| O=C(O)c1nc(C2CC2)ncc1-c1cc2c(cc1I)OCO2 [example 29] |  |  |  | herbicidal activity against AMARE ([6]; application rate 1000 g/ha): very good (a very good herbicidal activity is given at values of at least 85) |
| COC(=O)c1nc(C2CC2)ncc1-c1c(Cl)sc2ccccc12 [example 4] |  | very good (a very good herbicidal activity is given at values of at least 85) | good (A good herbicidal activity is given at values of at least 70) |  |
| O=C(O)c1nc(C2CC2)ncc1-c1cc2c(cc1Br)OCO2 [example 25] | good (A good herbicidal activity is given at values of at least 70) | good (A good herbicidal activity is given at values of at least 70) | very good (a very good herbicidal activity is given at values of at least 85) | herbicidal activity against APESV ([4]; application rate 1000 g/ha): very good (a very good herbicidal activity is given at values of at least 85); herbicidal activity against ABUTH [7]: good (A good herbicidal activity is given at values of at least 70) |
| COc1c2c(cc(Cl)c1-c1cnc(C3CC3)nc1C(=O)O)OCO2 [example 36] | very good (a very good herbicidal activity is given at values of at least 85) | very good (a very good herbicidal activity is given at values of at least 85) |  | herbicidal activity against APESV ([4]; application rate 1000 g/ha): very good (a very good herbicidal activity is given at values of at least 85) |
| O=C(O)c1nc(C2CC2)ncc1-c1cccc2c1OC(F)(F)O2 [example 2, 2-Cyclopropyl-5-(2,2-difluoro-1,3-benzodioxol-4-yl)pyrimidine-4-carboxylic Acid] |  | very good (a very good herbicidal activity is given at values of at least 85) | very good (a very good herbicidal activity is given at values of at least 85) | herbicidal activity against APESV ([4]; application rate 1000 g/ha): very good (a very good herbicidal activity is given at values of at least 85); herbicidal activity against AMARE ([6]; application rate 1000 g/ha): very good (a very good herbicidal activity is given at values of at least 85) |
| O=C(O)c1nc(C2CC2)ncc1-c1cccc2c1OCCO2 [example 31] | very good (a very good herbicidal activity is given at values of at least 85) |  | very good (a very good herbicidal activity is given at values of at least 85) | herbicidal activity against APESV ([4]; application rate 1000 g/ha): very good (a very good herbicidal activity is given at values of at least 85); herbicidal activity against AMARE ([6]; application rate 1000 g/ha): very good (a very good herbicidal activity is given at values of at least 85) |
| COC(=O)c1nc(C2CC2)ncc1-c1cccc2c1OCCO2 [example 30] |  |  |  | herbicidal activity against AMARE ([6]; application rate 1000 g/ha): very good (a very good herbicidal activity is given at values of at least 85) |
| COC(=O)c1nc(C2CC2)ncc1-c1c(Cl)cc2c(c1OC)OCO2 [example 35] |  |  |  | herbicidal activity against ABUTH [7]: very good (a very good herbicidal activity is given at values of at least 85) |
| COC(=O)c1nc(C2CC2)ncc1-c1coc2ccccc12 [example 15] |  |  | very good (a very good herbicidal activity is given at values of at least 85) | herbicidal activity against SETVI ([5]; application rate 1000 g/ha): very good (a very good herbicidal activity is given at values of at least 85) |
| O=C(O)c1nc(C2CC2)ncc1-c1cccc2c1OCO2 [example 6] |  | very good (a very good herbicidal activity is given at values of at least 85) | very good (a very good herbicidal activity is given at values of at least 85) | herbicidal activity against APESV ([4]; application rate 1000 g/ha): very good (a very good herbicidal activity is given at values of at least 85); herbicidal activity against AMARE [8]: very good (a very good herbicidal activity is given at values of at least 85); herbicidal activity against AMARE ([6]; application rate 1000 g/ha): very good (a very good herbicidal activity is given at values of at least 85) |
| O=C(O)c1nc(C2CC2)ncc1-c1csc2ccccc12 [example 13] |  |  |  | herbicidal activity against ECHCG ([1]; application rate 2000 g/ha): good (A good herbicidal activity is given at values of at least 70); herbicidal activity against ALOMY ([2]; application rate 2000 g/ha): good (A good herbicidal activity is given at values of at least 70); herbicidal activity against AMARE ([6]; application rate 2000 g/ha): very good (a very good herbicidal activity is given at values of at least 85); herbicidal activity against ECHCG ([3]; application rate 2000 g/ha): very good (a very good herbicidal activity is given at values of at least 85) |
| O=C(O)c1nc(C2CC2)ncc1-c1c(Cl)oc2ccccc12 [example 20] |  |  |  | herbicidal activity against APESV ([4]; application rate 2000 g/ha): very good (a very good herbicidal activity is given at values of at least 85) |
| O=C(O)c1nc(C2CC2)ncc1-c1cccc2c1OCC2 [example 5] | good (A good herbicidal activity is given at values of at least 70) |  | good (A good herbicidal activity is given at values of at least 70) |  |
| O=C(O)c1nc(C2CC2)ncc1-c1cc2c(cc1Cl)OCO2 [example 10] | good (A good herbicidal activity is given at values of at least 70) | very good (a very good herbicidal activity is given at values of at least 85) | very good (a very good herbicidal activity is given at values of at least 85) | herbicidal activity against APESV ([4]; application rate 1000 g/ha): very good (a very good herbicidal activity is given at values of at least 85) |
